Results as given in patent US20220135591A1, “HETEROCYCLIC COMPOUNDS AS INHIBITORS OF MONOACYLGLYCEROL LIPASE (MAGL)” (Hoffmann-La Roche Inc., priority 2019, published 2022).

Biological target: T1, MAGL (recombinant wild-type) (Homo sapiens, UniProt Q99685)
T1 sequence (Q99685 1-303): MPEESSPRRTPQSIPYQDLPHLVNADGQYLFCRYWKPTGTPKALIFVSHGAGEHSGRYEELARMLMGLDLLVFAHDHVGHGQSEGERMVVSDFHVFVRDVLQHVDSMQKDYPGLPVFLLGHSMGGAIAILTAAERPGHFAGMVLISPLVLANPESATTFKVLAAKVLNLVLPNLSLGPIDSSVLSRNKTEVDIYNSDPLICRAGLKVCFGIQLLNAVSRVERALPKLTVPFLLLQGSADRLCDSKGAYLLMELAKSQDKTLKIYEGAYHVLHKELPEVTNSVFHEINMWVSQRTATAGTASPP
Assay: 4-NPA assay: MAGL inhibitory activity by hydrolysis of 4-nitrophenylacetate, absorbance at 405 nm
Type: biochemical
Settings: 4-NPA assay (values without footnote [b])
Experimental: Compounds were profiled for MAGL inhibitory activity by measuring the enzymatic activity of MAGL by following the hydrolysis of 4-nitrophenylacetate resulting in 4-nitrophenol, which absorbs at 405-412 nm (G. G. Muccioli, G. Labar, D. M. Lambert, Chem. Bio. Chem. 2008, 9, 2704-2710). This assay is hereinafter abbreviated “4-NPA assay”.
The assay was carried out in 384 well assay plates (black with clear bottom, non-binding surface treated, Corning Ref. 3655) in a total volume of 40 μL. Compound dilutions were made in 100% DMSO (VWR Chemicals 23500.297) in a polypropylene plate in 3-fold dilution steps to give a final concentration range in the assay from 25 μM to 1.7 nM. 1 μL compound dilutions (100% DMSO) were added to 19 μL MAGL (recombinant wild-type) in assay buffer (50 mM TRIS (GIBCO, 15567-027), 1 mM EDTA (Fluka, 03690-100 mL)). The plate was shaked for 1 min at 2000 rpm (Variomag Teleshake) and then incubated for 15 min at RT. To start the reaction, 20 μL 4-Nitrophenlyacetate (Sigma N-8130) in assay buffer with 6% EtOH was added. The final concentrations in the assay were 1 nM MAGL and 300 μM 4-Nitrophenylacetate. After shaking (1 min, 2000 rpm) and 5 min incubation at RT, the absorbance at 405 nm was measured for a first time (Molecular Devices, SpectraMax Paradigm). A second measurement was then done after incubation for 80 min at RT. From the two measurements, the slope was calculated by subtracting the first from the second measurement.

Structure (SMILES)	IC50 [nM]
CC(OC1CN(c2ccc(C(=O)N3CCN(c4nc5ncccc5o4)CC3)cc2)C1)C(F)(F)F (stereo not drawn) [Example 193, (4-(oxazolo[4,5-b]pyridin-2-yl)piperazin-1-yl)(4-(3-((1,1,1-trifluoropropan-2-yl)oxy)azetidin-1-yl)phenyl)methanone]	355
Cc1ccc2oc(N3CCN(C(=O)c4ccc(N5CC(OC(C)C(F)(F)F)C5)cc4C)CC3)nc2n1 (stereo not drawn) [Example 211, (2-methyl-4-(3-((1,1,1-trifluoropropan-2-yl)oxy)azetidin-1-yl)phenyl)(4-(5-methyloxazolo[4,5-b]pyridin-2-yl)piperazin-1-yl)methanone]	346
CC1(Cn2ncnc2-c2ccc(C(=O)N3CCN(c4nc5nc(Cl)ccc5o4)CC3)cc2)CC1 [Example 50, [4-(5-chlorooxazolo[4,5-b]pyridin-2-yl)piperazin-1-yl]-[4-[2-[(1-methylcyclopropyl)methyl]-1,2,4-triazol-3-yl]phenyl]methanone]	4230
Cc1ccc2oc(N3CCN(C(=O)c4cnc(N5CCC6(C5)CC6(F)F)nc4)CC3)nc2n1 (stereo not drawn) [Example 222, (2-(1,1-difluoro-5-azaspiro[2.4]heptan-5-yl)pyrimidin-5-yl)(4-(5-methyloxazolo[4,5-b]pyridin-2-yl)piperazin-1-yl)methanone]	794
O=C(c1ccc2nc(-c3ccccc3)oc2c1)N1CCN(c2nc3ncccc3o2)CC1 [Example 2, (4-(oxazolo[4,5-b]pyridin-2-yl)piperazin-1-yl)(2-phenylbenzo[d]oxazol-6-yl)methanone]	194
CC(C)(C)c1noc(-c2ccc(C(=O)N3CCN(c4nc5nc(Cl)ccc5o4)CC3)cc2)n1 [Example 39, [4-(3-tert-butyl-1,2,4-oxadiazol-5-yl)phenyl]-[4-(5-chlorooxazolo[4,5-b]pyridin-2-yl)piperazin-1-yl]methanone]	19
CC(C)(CF)c1nc(-c2ccc(C(=O)N3CCN(c4nc5nc(Cl)ccc5o4)CC3)cc2)no1 [Example 20, (4-(5-chlorooxazolo[4,5-b]pyridin-2-yl)piperazin-1-yl)(4-(5-(1-fluoro-2-methylpropan-2-yl)-1,2,4-oxadiazol-3-yl)phenyl)methanone]	19
CC(C)(C)c1cn(-c2ccc(C(=O)N3CCN(c4nc5nc(Cl)ccc5o4)CC3)cc2)cn1 [Example 63, [4-(4-tert-butylimidazol-1-yl)phenyl]-[4-(5-chlorooxazolo[4,5-b]pyridin-2-yl)piperazin-1-yl]methanone]	20
Cc1ccc2oc(N3CCN(C(=O)c4ccc(N5CC(OC(C)C(F)(F)F)C5)nc4)CC3)nc2n1 (stereo not drawn) [Example 214, (4-(5-methyloxazolo[4,5-b]pyridin-2-yl)piperazin-1-yl)(6-(3-((1,1,1-trifluoropropan-2-yl)oxy)azetidin-1-yl)pyridin-3-yl)methanone]	170
CC(C)=Cc1nc(-c2ccc(C(=O)N3CCN(c4nc5nc(Cl)ccc5o4)CC3)cc2)no1 [Example 266, [4-(5-chlorooxazolo[4,5-b]pyridin-2-yl)piperazin-1-yl]-[4-[5-(2-methylprop-1-enyl)-1,2,4-oxadiazol-3-yl]phenyl]methanone]	101
Cc1ccc2oc(N3CCN(C(=O)c4ccc(OCC5(C)CC5)c(-c5ccc(CO)cc5)c4)CC3)nc2n1 [Example 187, [3-[4-(hydroxymethyl)phenyl]-4-[(1-methylcyclopropyl)methoxy]phenyl]-[4-(5-methyl-[1,3]oxazolo[4,5-b]pyridin-2-yl)piperazin-1-yl]methanone]	9
Cc1ccc2oc(N3CCN(C(=O)c4cc(Cl)cc(N5CCC(F)(F)CC5)c4)CC3)nc2n1 [Example 177, [3-chloro-5-(4,4-difluoropiperidin-1-yl)phenyl]-[4-(5-methyl-[1,3]oxazolo[4,5-b]pyridin-2-yl)piperazin-1-yl]methanone]	3160
Cc1ccc2oc(N3CCN(C(=O)c4ccc5nc(CCC(F)(F)F)oc5c4)CC3)nc2n1 [Example 18, [4-(5-methyloxazolo[4,5-b]pyridin-2-yl)piperazin-1-yl]-[2-(3,3,3-trifluoropropyl)-1,3-benzoxazol-6-yl]methanone]	434
Cc1ccc2oc(N3CCN(C(=O)c4cnc(N5CCC6(C5)CC6(F)F)cc4C)CC3)nc2n1 (stereo not drawn) [Example 223, (6-(1,1-difluoro-5-azaspiro[2.4]heptan-5-yl)-4-methylpyridin-3-yl)(4-(5-methyloxazolo[4,5-b]pyridin-2-yl)piperazin-1-yl)methanone]	4460

Now from value to molecule:

IC50 [nM]	Structure (SMILES)
43	Cc1ccc2oc(N3CCN(C(=O)c4ccc(-c5noc(C(C)(C)C)n5)c(F)c4)CC3)nc2n1 [Example 58, [4-(5-tert-butyl-1,2,4-oxadiazol-3-yl)-3-fluoro-phenyl]-[4-(5-methyloxazolo[4,5-b]pyridin-2-yl)piperazin-1-yl]methanone]
3	CC(C)(C)Cn1cnc(-c2ccc(C(=O)N3CCN(c4nc5nc(Cl)ccc5o4)CC3)cc2)c1 [Example 29, [4-(5-chlorooxazolo[4,5-b]pyridin-2-yl)piperazin-1-yl]-[4-[1-(2,2-dimethylpropyl)imidazol-4-yl]phenyl]methanone]
38	Cc1ccc2oc(N3CCN(C(=O)c4cnc(N5CC(OC(C)C(F)(F)F)C5)c(Cl)c4)CC3)nc2n1 (stereo not drawn) [Example 226, (5-chloro-6-(3-((1,1,1-trifluoropropan-2-yl)oxy)azetidin-1-yl)pyridin-3-yl)(4-(5-methyloxazolo[4,5-b]pyridin-2-yl)piperazin-1-yl)methanone]
11	Cc1ccc2oc(N3CCN(C(=O)c4ccc(-c5noc(C(C)(C)C)n5)c(C)c4)CC3)nc2n1 [Example 56, [4-(5-tert-butyl-1,2,4-oxadiazol-3-yl)-3-methyl-phenyl]-[4-(5-methyloxazolo[4,5-b]pyridin-2-yl)piperazin-1-yl]methanone]
6	CC1(Cc2nc(-c3ccc(C(=O)N4CCN(c5nc6nc(Cl)ccc6o5)CC4)cc3)no2)CC1 [Example 40, [4-(5-chlorooxazolo[4,5-b]pyridin-2-yl)piperazin-1-yl]-[4-[5-[(1-methylcyclopropyl)methyl]-1,2,4-oxadiazol-3-yl]phenyl]methanone]
810	Cc1ccc2oc(N3CCN(C(=O)c4ccc(N5CC6(CCCC6)C5)c(-c5ncc[nH]5)c4)CC3)nc2n1 [Example 180, [4-(2-azaspiro[3.4]octan-2-yl)-3-(1H-imidazol-2-yl)phenyl]-[4-(5-methyl-[1,3]oxazolo[4,5-b]pyridin-2-yl)piperazin-1-yl]methanone]
5	CC(C)(C)c1cnn(-c2ccc(C(=O)N3CCN(c4nc5nc(Cl)ccc5o4)CC3)cc2)c1 [Example 52, [4-(4-tert-butylpyrazol-1-yl)phenyl]-[4-(5-chlorooxazolo[4,5-b]pyridin-2-yl)piperazin-1-yl]methanone]
70	CCC(C)(C)OC1CN(c2ccc(C(=O)N3CCN(c4nc5nc(C)ccc5o4)CC3)cn2)C1 [Example 215, (4-(5-methyloxazolo[4,5-b]pyridin-2-yl)piperazin-1-yl)(6-(3-(tert-pentyloxy)azetidin-1-yl)pyridin-3-yl)methanone]
35	O=C(c1ccc(N2CC3(CCC3(F)F)C2)cc1)N1CCN(c2nc3nc(Cl)ccc3o2)CC1 [Example 203, [4-(5-chloro-[1,3]oxazolo[4,5-b]pyridin-2-yl)piperazin-1-yl]-[4-(7,7-difluoro-2-azaspiro[3.3]heptan-2-yl)phenyl]methanone]
5	Cc1cc(C(=O)N2CCN(c3nc4nc(Cl)ccc4o3)CC2)ccc1-c1noc(C(C)(C)C)n1 [Example 57, [4-(5-tert-butyl-1,2,4-oxadiazol-3-yl)-3-methyl-phenyl]-[4-(5-chlorooxazolo[4,5-b]pyridin-2-yl)piperazin-1-yl]methanone]
2420	Cc1ccc2oc(N3CCN(C(=O)N4CC5(C4)CN(S(=O)(=O)c4cccc(Cl)c4)C5)CC3)nc2n1 [Example 305, [2-(3-chlorophenyl)sulfonyl-2,6-diazaspiro[3.3]heptan-6-yl]-[4-(5-methyloxazolo[4,5-b]pyridin-2-yl)piperazin-1-yl]methanone]
1550	CC(=O)Cc1nc(-c2ccc(C(=O)N3CCN(c4nc5nc(Cl)ccc5o4)CC3)cc2)no1 [Example 23, 1-[3-[4-[4-(5-chlorooxazolo[4,5-b]pyridin-2-yl)piperazine-1-carbonyl]phenyl]-1,2,4-oxadiazol-5-yl]propan-2-one]
38	Cc1ccc2oc(N3CCN(C(=O)c4ccc(N5CC(O[C@H](C)C(F)(F)F)C5)cc4)CC3)nc2n1 [Example 201, (R)-(4-(5-methyloxazolo[4,5-b]pyridin-2-yl)piperazin-1-yl)(4-(3-((1,1,1-trifluoropropan-2-yl)oxy)azetidin-1-yl)phenyl)methanone]
